What was measured:
[1] = test system: Human epithelium cancer cells A431; experiment: Evaluation of cell toxicity of fluorescent labeling agent (cell counting kit-8, absorbance at 450 nm); type: cell-based; settings: labeling agent left one hour, absorbance relative to DMSO medium solution regarded as one
Protocol: <Evaluation of Cell Toxicity of Fluorescent Labeling Agent>
(§1) Human epithelium cancer cells A431 were seeded in a 96-well plate (1×10^4 cells/well). Next, the A431 were cultured for 24 hours using an RPMI 1640 medium to which 10% fetal bovine serum (FBS) and 1% penicillin-streptomycin had been added in an incubator (37° C., 5% CO2-containing Air, humidified environment). As the RPMI 1640 medium, an RPMI-164-Medium manufactured by Sigma-Aldrich Inc. was used.
After cultivation, the medium was removed, the fluorescent labeling agents prepared in Examples 83 to 123 and Comparative Examples 25 to 37 and an RPMI 1640 medium containing 1% dimethyl sulfoxide (DMSO medium solution) were added thereto. These were left to stand in the incubator for one hour and then washed in the RPMI 1640 medium. 10 μL of a cell counting kit-8 (manufactured by Dojindo Laboratories.) was added to each well and left to stand in the incubator (37° C., 5% CO2-containing Air, humidified environment) for one hour. Next, the absorbance at 450 nm was measured using a plate reader (SPARK, manufactured by Tecan Trading AG).
The relative value of the absorbance of each fluorescent labeling agent when the absorbance of the well to which the DMSO medium solution had been added was regarded as one was calculated and evaluated based on the following standards. […] At the time of calculating the relative value of the absorbance of the fluorescent labeling agent, a value obtained by subtracting the absorbance before the addition of the cell counting kit-8 (manufactured by Dojindo Laboratories.) from the measured absorbance was used.
• P (Pass): 0.8 or more • F (Failure): Less than 0.8 <Evaluation of Fluorescence Intensity of Fluorescent Labeling Agent>

[2] = test system: Human epithelium cancer cells A431; experiment: Evaluation of fluorescence intensity of fluorescent labeling agent in labeled cells (plate reader); type: cell-based; settings: one hour, FIG. 1, compared with fluorescent labeling agents 68 and 75
Protocol: as §1, with “environment).” for “environment). As the RPMI 1640 medium, an RPMI-164-Medium manufactured by Sigma-Aldrich Inc. was used.”
After cultivation, the medium was removed, and the fluorescent labeling agents prepared in Examples 127 to 167 and Comparative Examples 25 to 37 were added thereto and left to stand in the incubator for one hour. Next, these were washed in the RPMI 1640 medium. The fluorescence intensities were evaluated in fluorescence wavelength ranges shown in Table 22 using the plate reader (SPARK, manufactured by Tecan Trading AG).

phospholipids = experiment: Evaluation of property of fluorescent dye being accumulated in phospholipids (labeling agent intensity / dye solution intensity); type: cell-based, Human; settings: A431 cells, one hour; relative value, comparative compound 12 regarded as one; fluorescent wavelength range as in Table 22 (780-800 nm, 630-650 nm in last line)
Protocol: <Evaluation of Property of Fluorescent Dye being Accumulated in Phospholipids>
The property of each dye being accumulated in phospholipids was calculated from the fluorescence intensity integral value obtained from the fluorescent spectrum of the dye solution and the fluorescence intensity obtained from the fluorescence intensity of the fluorescent labeling agent using an expression (1). The relative value of the property of each fluorescent labeling agent being accumulated in phospholipids when the property of the comparative compound 12 being accumulated in phospholipids was regarded as one was calculated and evaluated based on the following standards. In a case where the relative value is evaluated as 3 or more, it can be said that each fluorescent dye has a favorable property of being accumulated in phospholipids.
• 4: The property of being accumulated in phospholipids is 4 or more. • 3: The property of being accumulated in phospholipids is 2 or more and less than 4. • 2: The property of being accumulated in phospholipids is 1 or more and less than 2. • 1: The property of being accumulated in phospholipids is less than 1. Property of being accumulated in phospholipids=fluorescence intensity of fluorescent labeling agent/fluorescence intensity of dye solution (1)

[3] = test system: Human epithelium cancer cells A431; experiment: Evaluation of visibility of cell (fluorescent microscope); type: cell-based; parameters: key: P (Pass): Clear; F (Failure): Unclear; settings: A431 cells, labeling agent left one hour
Protocol: <Evaluation of Visibility of Cell>
as §1, with “The” for “Next, the”, “environment).” for “environment). As the RPMI 1640 medium, an RPMI-164-Medium manufactured by Sigma-Aldrich Inc. was used.”
After cultivation, the medium was removed, and the fluorescent labeling agents prepared in Examples 127 to 189 and Comparative Examples 25 to 37 were added thereto and left to stand in the incubator for one hour. Next, these were washed in the RPMI 1640 medium. The dark field images and fluorescent images of the cells were observed using a fluorescent microscope (manufactured by Keyence Corporation, BZ-X800) equipped with an excitation filter for an appropriate wavelength and a fluorescent filter and evaluated based on the following standards.
• P (Pass): Clear • F (Failure): Unclear
The evaluation results of the visibility of the cells labeled with the fluorescent labeling agents 1, 15, 19, 24, 25, 68, and 75 are sequentially shown in FIGS. 2 to 8 (magnification: 10 times, optical uptake time: 1 second).
The evaluation results of the visibility of the cells labeled with the fluorescent labeling agents 42 and 53 are sequentially shown in FIGS. 9 to 10 (magnification: 40 times, optical uptake time: 1 second).
From what has been described above, it has been clarified that the fluorescent labeling agent according to the embodiment of the present invention has excellent characteristics as a fluorescent labeling agent.

## CCOc1cccc2c1C1=NC2=Nc2c3c(OCC)cccc3c3[n]2[Al]([O][Si](C)(C)CCCN)[n]2c(c4cccc(OCC)c4c2=NC2=NC(=N3)c3c(OCC)cccc32)=N1 [Fluorescent dye 1]
[1]
  Cell toxicity: P (P (Pass): 0.8 or more)
[2]
  fluorescence intensity of fluorescent labeling agent: high fluorescence intensities
phospholipids
  Property of being accumulated in phospholipids: 4 (4: The property of being accumulated in phospholipids is 4 or more.)
[3]
  Cell visibility: P

## CC[N+](CC)(CC)CCC[Si](C)(C)[O][Al]1[n]2c3c4cc(-c5ccccc5)ccc4c2N=C2N=C(N=c4c5cc(-c6ccccc6)ccc5c([n]41)=NC1=NC(=N3)c3ccc(-c4ccccc4)cc31)c1ccc(-c3ccccc3)cc12.[I-] [Fluorescent dye 20]
[1]
  Cell toxicity: P (P (Pass): 0.8 or more)
phospholipids
  Property of being accumulated in phospholipids: 4 (4: The property of being accumulated in phospholipids is 4 or more.)
[3]
  Cell visibility: P

## CCOc1cccc2c1C1=NC2=Nc2c3c(OCC)cccc3c3[n]2[Al]([O]P(=O)(CCC(=O)O)Oc2ccccc2)[n]2c(c4cccc(OCC)c4c2=NC2=NC(=N3)c3c(OCC)cccc32)=N1 (centres unmarked) [Fluorescent dye 18]
[1]
  Cell toxicity: P (P (Pass): 0.8 or more)
phospholipids
  Property of being accumulated in phospholipids: 4 (4: The property of being accumulated in phospholipids is 4 or more.)
[3]
  Cell visibility: P

## CCOc1cccc2c1C1=NC2=Nc2c3c(OCC)cccc3c3[n]2[Al]([O]P(=O)(CCC(=O)O)c2ccccc2)[n]2c(c4cccc(OCC)c4c2=NC2=NC(=N3)c3c(OCC)cccc32)=N1 (centres unmarked) [Fluorescent dye 15]
[1]
  Cell toxicity: P (P (Pass): 0.8 or more)
[2]
  fluorescence intensity of fluorescent labeling agent: high fluorescence intensities
phospholipids
  Property of being accumulated in phospholipids: 4 (4: The property of being accumulated in phospholipids is 4 or more.)
[3]
  Cell visibility: P

## CCOc1cccc2c1C1=NC2=Nc2c3c(OCC)cccc3c3n2[Si](O)(OP(=O)(CCC(=O)O)c2ccccc2)n2c(c4cccc(OCC)c4c2=NC2=NC(=N3)c3c(OCC)cccc32)=N1 (centres unmarked) [Fluorescent dye 16]
[1]
  Cell toxicity: P (P (Pass): 0.8 or more)
phospholipids
  Property of being accumulated in phospholipids: 4 (4: The property of being accumulated in phospholipids is 4 or more.)
[3]
  Cell visibility: P

## CC(C)C(CC(=O)O)C(=O)NCCc1ccc(S(=O)(=O)[O][Al]2[n]3c4c5cc(C(C)(C)C)ccc5c3N=C3N=C(N=c5c6cc(C(C)(C)C)ccc6c([n]52)=NC2=NC(=N4)c4ccc(C(C)(C)C)cc42)c2ccc(C(C)(C)C)cc23)cc1 (centres unmarked) [Fluorescent dye 29]
[1]
  Cell toxicity: P (P (Pass): 0.8 or more)
phospholipids
  Property of being accumulated in phospholipids: 4 (4: The property of being accumulated in phospholipids is 4 or more.)
[3]
  Cell visibility: P

## CCOc1cccc2c1C1=NC2=Nc2c3c(OCC)cccc3c3[n]2[Al]([O]C(=O)CCN(C)C)[n]2c(c4cccc(OCC)c4c2=NC2=NC(=N3)c3c(OCC)cccc32)=N1 [Fluorescent dye 14]
[1]
  Cell toxicity: P (P (Pass): 0.8 or more)
phospholipids
  Property of being accumulated in phospholipids: 4 (4: The property of being accumulated in phospholipids is 4 or more.)
[3]
  Cell visibility: P

## C[Si](C)(CCC[N+](c1ccccc1)(c1ccccc1)c1ccccc1)[O][Al]1[n]2c3c4cc(C5CCCCC5)c(C5CCCCC5)cc4c2N=C2N=C(N=c4c5cc(C6CCCCC6)c(C6CCCCC6)cc5c([n]41)=NC1=NC(=N3)c3cc(C4CCCCC4)c(C4CCCCC4)cc31)c1cc(C3CCCCC3)c(C3CCCCC3)cc12.[I-] [Fluorescent dye 21]
[1]
  Cell toxicity: P (P (Pass): 0.8 or more)
phospholipids
  Property of being accumulated in phospholipids: 4 (4: The property of being accumulated in phospholipids is 4 or more.)
[3]
  Cell visibility: P

## C[Si](C)(CCCN)[O][Al]1[n]2c3c4cc(-c5ccccc5)ccc4c2N=C2N=C(N=c4c5cc(-c6ccccc6)ccc5c([n]41)=NC1=NC(=N3)c3ccc(-c4ccccc4)cc31)c1ccc(-c3ccccc3)cc12 [Fluorescent dye 2]
[1]
  Cell toxicity: P (P (Pass): 0.8 or more)
phospholipids
  Property of being accumulated in phospholipids: 4 (4: The property of being accumulated in phospholipids is 4 or more.)
[3]
  Cell visibility: P
